# According to patent US9585929B2 (ZHEJIANG KANGLAITE GROUP CO., LTD., priority 2014, dated 2017):
# Marks after values point to notes of the source that are not given here.
# What was measured:
# QGY human hepatoma = assay: Xenograft model of QGY human hepatoma inoculated subcutaneously in nude mice
# Protocol: (§1) A549 Human lung cancer cells cryopreserved in liquid nitrogen were recovered, and incubated in a 37 incubator under 5% CO2. After being subcultured, cells in a logarithmic growth stage were distributed with normal saline to be a cell suspension in a concentration of 1-2×10^7 cells/ml. The cell suspension was inoculated into BALB/C nude mice (SPF grade, 18-20 g, 6 weeks old, male) subcutaneously at right axillary. The tumor tissues were aseptically taken from the 2nd generation of xenograft model of A549 human lung cancer in a vigorous growth stage and cut into small uniform pieces in the size of 1-2 mm^3. The right axillary of each nude mouse was inoculated one piece subcutaneously via a trocar. When the inoculated tumor could be touched, the mice were randomly grouped and administered according to the experimental design program. All contacted feed, padding, cages and equipment, etc., should be autoclaved prior to use. The nude mice were fed in a laminar flow rack. Tumor sizes and animal weights were observed and tested dynamically. Mice in each group were sacrificed 3 weeks later or so, and tumors were surgically removed and weighed. The inhibition rate on tumor was calculated according to the following formula: Inhibition rate %=[(Mean tumor weight of the control group−mean tumor weight of the treatment group)/mean tumor weight of the control group]×100%;
# (§2) Q value of antitumor effect in drug combination was calculated according to Jin's formula: Q=Ea+b/(Ea+Eb−Ea×Eb) Wherein Ea+b=the tumor inhibition rate of drug combination, Ea or Eb=the tumor inhibition rate of drug A or drug B, respectively. If Q value=0.85-1.15, an additive effect (+) was shown; if Q value>1.15, a synergistic effect (++) was shown.
# A549 human lung cancer = assay: Xenograft model of A549 human lung cancer inoculated subcutaneously in nude mice; assay type: in vivo, BALB/C nude mice
# Protocol: as §1, §2
# S180 sarcoma = S180 sarcoma model in mice; assay type: in vivo, Kunmin mice; settings: DHAD 2 mg/kg ip × 2(1, 3)
# Protocol: The injection of the invention (10 g/100 ml), Cyclophosphamide (CTX), Mitoxantrone (DHAD), Mitomycin (MMC) and normal saline
# Ascitic fluid of mice having well-grown […] sarcoma was diluted with normal saline (1:4) to obtain a cell suspension of about 1-2×10^7 cells/ml. Each mouse was inoculated with 0.2 ml of the suspension subcutaneously at the right axilla, and the mice were grouped randomly. The administration began from the next day according to the dosage program in Table 7. On the tenth day after the inoculation of S180, animals were sacrificed via cervical dislocation and dissected to take out the tumor block. Weights of tumor were compared and inhibition rates were calculated for each group.
# [1] = tested on: Bcap-37 human breast cancer; assay: Bcap-37 human breast cancer model in nude mice; assay type: in vivo, BALB/C nude mice; settings: Docetaxel 25 mg/kg ip × 1
# Protocol: The injection of the invention (10 g/100 ml), Docetaxel injection (Taxotere, 20 mg/vial) and normal saline
# Bcap-37 human breast cancer: inoculated in BALB/C nude mice (SPF grade), 18-20 g, female
# Tumor blocks of well-grown Bcap-37 human breast cancer were homogenized in normal saline to obtain cell suspensions in the concentration of 1-2×10^7 cells/ml. Each nude mouse was inoculated with 0.2 ml of the suspension at the right axilla subcutaneously, and the mice were grouped randomly. The administration began from the 7th day after the inoculation. 20 Days after the inoculation, the mice were sacrificed. Tumor blocks were taken out and weighed. Differences of tumor weight between each experimental group and the control group were compared, and tumor inhibition rates and Q values were calculated.
smiles,measurement,setting,value
COc1cccc2c1C(=O)c1c(O)c3c(c(O)c1C2=O)C[C@@](O)(C(=O)CO)C[C@@H]3O[C@H]1C[C@H](N)[C@H](O)[C@H](C)O1 [Adriamycin],Inhibition rate,QGY human hepatoma; Adriamycin 1 mg/kg ip × 7 qd,38.41%
same,Weight of animal start,QGY human hepatoma; Adriamycin 1 mg/kg ip × 7 qd,21.3 g
same,Weight of tumor x ± SD,QGY human hepatoma; Adriamycin 1 mg/kg ip × 7 qd,0.712 ± 0.18 g
same,Inhibition rate,QGY human hepatoma; Adriamycin 2 mg/kg ip × 7 qd,70.76%
same,Weight of tumor x ± SD,QGY human hepatoma; Adriamycin 2 mg/kg ip × 7 qd,0.338 ± 0.17 g
N.N.[Cl][Pt][Cl] [Cisplatin],Inhibition rate,A549 human lung cancer; Cisplatin 1 mg/kg ip × 7 qd,42.13%
same,Weight of animal end,A549 human lung cancer; Cisplatin 1 mg/kg ip × 7 qd,24.0 g
same,Weight of animal start,A549 human lung cancer; Cisplatin 1 mg/kg ip × 7 qd,20.2 g
same,Weight of tumor x ± SD,A549 human lung cancer; Cisplatin 1 mg/kg ip × 7 qd,0.765 ± 0.11 g
same,Inhibition rate,A549 human lung cancer; Cisplatin 2 mg/kg ip × 7 qd,86.31%
same,Weight of animal end,A549 human lung cancer; Cisplatin 2 mg/kg ip × 7 qd,23.1 g
same,Weight of tumor x ± SD,A549 human lung cancer; Cisplatin 2 mg/kg ip × 7 qd,0.181 ± 0.06 g
"O=C1c2c(O)ccc(O)c2C(=O)c2c(NCCNCCO)ccc(NCCNCCO)c21 [DHAD, Mitoxantrone]",Inhibition rate,S180 sarcoma,50.63** %
same,Weight of tumor x ± SD,S180 sarcoma,0.78 ± 0.20 g
CC(=O)O[C@@]12CO[C@@H]1C[C@H](O)[C@@]1(C)C(=O)[C@H](O)C3=C(C)[C@@H](OC(=O)[C@H](O)[C@@H](NC(=O)OC(C)(C)C)c4ccccc4)C[C@@](O)([C@@H](OC(=O)c4ccccc4)[C@H]21)C3(C)C [Docetaxel],Inhibition rate,[1],56.80%
same,Weight of tumor x ± SD,[1],1.27 ± 0.88 g
